Assay results taken from publication PMC12926254, “Novel pyrazole carboxylate derivatives as lonazolac bioisosteres with selective COX-2 inhibition: design, synthesis and anti-inflammatory activity” (Molecular Diversity, 2025).

Assays:
[1] = test system: carrageenan-induced rat paw edema; assay: Carrageenan-induced rat paw edema assay; assay type: in vivo
[2] = test system: carrageenan-induced rat paw edema; assay: Carrageenan-induced rat paw edema assay; assay type: in vivo; settings: for % inhibition (edema) / Paw edema % inhibition / Paw edema thickness ± SEM: 50 mg/kg; for Paw edema % inhibition / Paw edema thickness ± SEM: rat; for ED50: Rattus norvegicus, dose producing 50% edema inhibition
Protocol: As previously described, paw thickness was evaluated at 1, 3, and 5 h following carrageenan injection at a dose of 50 mg/kg.

COX-2 = biological target: T1, COX-2 (Homo sapiens, UniProt P35354); assay: In vitro COX-2 inhibition (COX-2 Inhibitor Screening Kit-K547, Biovision); assay type: biochemical; settings: for IC50: mean of six values ± standard deviation
T1 construct: purchased Biovision K547
T1 sequence (P35354 18-604): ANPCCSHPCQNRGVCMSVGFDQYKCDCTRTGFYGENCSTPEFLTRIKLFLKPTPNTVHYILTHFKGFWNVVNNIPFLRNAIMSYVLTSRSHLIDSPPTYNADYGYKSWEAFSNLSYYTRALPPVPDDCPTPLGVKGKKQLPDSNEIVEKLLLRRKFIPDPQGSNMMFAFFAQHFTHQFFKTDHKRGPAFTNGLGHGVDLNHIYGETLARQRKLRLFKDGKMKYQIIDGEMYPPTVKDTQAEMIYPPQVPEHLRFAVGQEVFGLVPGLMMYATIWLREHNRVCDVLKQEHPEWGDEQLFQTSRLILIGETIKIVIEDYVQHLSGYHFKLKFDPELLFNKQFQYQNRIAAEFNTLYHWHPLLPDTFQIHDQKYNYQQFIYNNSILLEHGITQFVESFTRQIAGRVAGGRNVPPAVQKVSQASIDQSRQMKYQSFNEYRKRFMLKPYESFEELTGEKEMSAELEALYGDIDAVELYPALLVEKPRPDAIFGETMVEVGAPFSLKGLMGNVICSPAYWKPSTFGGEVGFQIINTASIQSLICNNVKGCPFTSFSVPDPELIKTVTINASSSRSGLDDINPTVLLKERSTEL
Protocol: The IC50 value of the tested compounds was determined.
COX-2 inhibitor Screening Protocol: Dissolve the tested compounds in DMSO. Use COX Assay Buffer to dilute the relevant test concentration by 10X before using. Place 10 µl of diluted test inhibitor or Assay Buffer in the specified wells instead of the sample screen (S) or enzyme control (EC; no inhibitor). […] Before using, combine 2 µl of COX Cofactor with 398 µl of COX Assay Buffer to dilute COX Cofactor 200 times. Blend thoroughly. Just before using, mix 5 µl of the provided arachidonic acid with 5 µl of NaOH to make the arachidonic acid solution. Combine quickly using a vortex. To dilute the arachidonic acid/NaOH solution 10 times, add 90 µl of water. There should be 80 µl of reaction mix in each well. Using a multi-channel pipette, add 10 µl of diluted arachidonic acid/NaOH solution into each well to initiate the reactions concurrently.

15-LOX = biological target: T2, 15-LOX (Glycine max, UniProt P08170); assay: In vitro 15-LOX inhibition (Lipoxygenase Inhibitor Screening assay Kit 760700, Cayman); assay type: biochemical; settings: mean of six values ± standard deviation
T2 construct: purchased Cayman Chemical 760,700
T2 sequence (P08170 1-839): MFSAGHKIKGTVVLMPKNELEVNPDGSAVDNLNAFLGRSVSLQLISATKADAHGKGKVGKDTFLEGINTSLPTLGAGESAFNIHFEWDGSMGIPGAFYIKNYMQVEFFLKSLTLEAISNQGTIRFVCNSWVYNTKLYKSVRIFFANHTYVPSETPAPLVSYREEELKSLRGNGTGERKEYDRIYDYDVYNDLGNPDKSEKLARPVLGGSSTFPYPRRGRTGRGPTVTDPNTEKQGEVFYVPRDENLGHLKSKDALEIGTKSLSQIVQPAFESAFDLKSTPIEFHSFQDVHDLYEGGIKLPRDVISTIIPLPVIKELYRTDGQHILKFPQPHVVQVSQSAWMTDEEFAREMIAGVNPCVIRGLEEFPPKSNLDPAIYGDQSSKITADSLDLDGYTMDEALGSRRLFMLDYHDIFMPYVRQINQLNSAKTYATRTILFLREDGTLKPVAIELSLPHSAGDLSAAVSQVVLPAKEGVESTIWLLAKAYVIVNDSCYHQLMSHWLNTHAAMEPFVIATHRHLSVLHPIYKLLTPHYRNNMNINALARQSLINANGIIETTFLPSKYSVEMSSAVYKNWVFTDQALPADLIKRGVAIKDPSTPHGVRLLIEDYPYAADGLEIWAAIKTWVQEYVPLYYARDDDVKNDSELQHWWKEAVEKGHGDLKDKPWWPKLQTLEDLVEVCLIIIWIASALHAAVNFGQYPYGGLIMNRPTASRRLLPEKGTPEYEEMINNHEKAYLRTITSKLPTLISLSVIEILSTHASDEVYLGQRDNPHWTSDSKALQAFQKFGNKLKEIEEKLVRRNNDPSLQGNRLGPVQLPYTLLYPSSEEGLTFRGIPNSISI
Protocol: 15-LOX inhibitor screening protocol: Blank wells: 100 µl of assay buffer was added to at least two wells, Positive control wells: 90 µl of 15-LOX standard was added to 10 µl of assay buffer to at least two wells, 100% initial activity wells: 90 µl of Lipoxygenase enzyme was added to 10 µl of solvent to at least two wells, Inhibitor wells: 90 µl of Lipoxygenase enzyme was added to 10 µl of inhibitor wells to. It was incubated for five minutes at room temperature. The reaction was initiated by adding 10 µl of substrate to all the wells. 96well-plates were placed on a shaker for at least 10 min. 100 µl of chromogen was added to each well to stop the enzyme catalysis. The reaction was covered with plate cover. 96well-plates were placed on a shaker for at least 5 min. The cover was removed and absorbance was read using plate reader at absorbance 490–500 nm.

Row | IC50 (COX-2) [nM] | IC50 (15-LOX) [nM] | COX-2 S.I. (COX-2; COX-1 IC50/COX-2 IC50) | SMILES | % inhibition (edema) ([1]; 10 mg/kg) [%] | % inhibition (edema) ([1]; 25 mg/kg) [%] | % inhibition (edema) [2] [%] | Paw edema % inhibition ([2]; 1 h after carrageenan) [%] | Paw edema thickness ± SEM ([2]; 1 h after carrageenan) [mm] | Paw edema % inhibition ([2]; 3 h after carrageenan) [%] | Paw edema thickness ± SEM ([2]; 3 h after carrageenan) [mm] | Paw edema % inhibition ([2]; 5 h after carrageenan) [%] | Paw edema thickness ± SEM ([2]; 5 h after carrageenan) [mm] | ED50 [2] [mg/kg]
1 | 221 ± 7 | 2230 ± 87 | – | CCOC(=O)COc1ccc(C2=NN(c3ccc(S(C)(=O)=O)cc3)C(c3cc(OC)c(OC)c(OC)c3)C2)cc1 (stereo not shown) [Compound 15d, Ethyl 2-(4-(1-(4-(methylsulfonyl)phenyl)-5-(3,4,5-trimethoxyphenyl)-4,5-dihydro-1H-pyrazol-3-yl)phenoxy)acetate] | 29.52 | 36.61 | 80.29 | 61.1 | 2.23 ± 0.0045 | 41.9 | 2.79 ± 0.011 | 40 | 2.90 ± 0.002 | 31.2
2 | 103 ± 3 | 488 ± 19 | – | CCOC(=O)COc1ccc(C2=NN(c3ccc(S(C)(=O)=O)cc3)C(c3ccc(Br)cc3)C2)cc1 (stereo not shown) [Compound 15 h, Ethyl 2-(4-(5-(4-bromophenyl)-1-(4-(methylsulfonyl)phenyl)-4,5-dihydro-1H-pyrazol-3-yl)phenoxy)acetate] | 19.49 | 37.98 | 82.28 | 54.85 | 2.57 ± 0.0071 | 55.9 | 2.61 ± 0.018 | 59.3 | 2.44 ± 0.0099 | 29.9
3 | 397 ± 13 | 412 ± 16 | 28.56 | CCOC(=O)COc1ccc(C2=NN(c3ccc(S(C)(=O)=O)cc3)C(c3ccc(OC)cc3)C2)cc1 (stereo not shown) [Compound 15c, Ethyl 2-(4-(5-(4-methoxyphenyl)-1-(4-(methylsulfonyl)phenyl)-4,5-dihydro-1H-pyrazol-3-yl)phenoxy)acetate] | 22.32 | 31.51 | 70.02 | 38.3 | 3.1 ± 0.002 | 55 | 2.56 ± 0.0034 | 66.1 | 2.1 ± 0.0084 | 24.1
